Columns and labels:
[1] = tested on: diarrhea caused by the continuous administration of a chemotherapeutic agent in Balb/c mice; experiment: Examples 444-469 (Table 9): oral CDK inhibitor, diarrhea caused by continuous administration of a chemotherapeutic agent; type: in vivo
Text: (§1) Balb/c mice were fed for 1 week, and then divided into groups. The experiment was divided into a control group, a chemotherapeutic agent group, and a CDK inhibitor group, each of which comprised 10 mice, to perform the administration experiment, for which the administration dosage, mode, time and frequency were shown in Table 9. The control group: being intragastrically administered with the same solvent as that used in the CDK inhibitor group (the time was shown in Table 9), and then being injected/intragastrically administered with the same solvent as that used in the chemotherapeutic agent group (the administration mode was shown in Table 9): the chemotherapeutic agent group: being intragastrically administered with the same solvent as that used in the CDK inhibitor group (the time was shown in Table 9), and then being injected/intragastrically administered with the chemotherapeutic agent (the type, administration mode, dosage and duration time were shown in Table 9): the CDK inhibitor group: being intragastrically administered with the CDK inhibitor (the time was shown in Table 9), and then being administered with the chemotherapeutic agent (the type, administration mode, dosage and duration time were shown in Table 9).
The scoring of diarrhea can refer to the method of Akinobu Kurita (Cancer Chemother Pharmacol 2000: 46:211-20.), Grade 0: normal feces: Grade 1: mild diarrhea, the stools is slightly wet and soft: Grade 2: moderate diarrhea, loose stools and mild perianal contamination: Grade 3: severe diarrhea, watery stools and accompanied by severe perianal staining (see FIG. 1). It is regarded as effective remission when the diarrhea grading of mice in the CDK inhibitor group is reduced compared with the average diarrhea grading of mice in the chemotherapeutic agent group.
The diarrhea grading of mice was observed and recorded every day. At the end of the experiment, the number of mice in the CDK inhibitor group whose diarrhea grading was lower than that of mice in the chemotherapeutic agent group was recorded. Table 9 lists various animal experiment combinations of chemotherapeutic agents and CDK inhibitors, as well as the corresponding experimental results. (Relative remission rate %=the number of mice in the CDK inhibitor group whose diarrhea has been effectively relieved/the total number of mice in the CDK inhibitor group*100%. The establishment rate of diarrhea model in the chemotherapeutic agent group was 50%-80%, that is, about 5-8 of 10 mice developed diarrhea during the experiment, and there were cases of individual mice death or not developing diarrhea.)

[2] = tested on: constipation caused by the continuous administration of a chemotherapeutic agent in Balb/c mice; experiment: Examples 470-481 (Table 10): oral CDK inhibitor, constipation caused by continuous administration of a chemotherapeutic agent; type: in vivo; details: Fluorouracil (5-Fu) intraperitoneal injection 100 mg/kg once a day
Text: as §1, with “10.” for “9.”, “10),” for “9),”, “10):” for “9):”, “10).” for “9).”
The feces reduction rate was calculated with reference to the method of Ji Eun Kim (Lab Anim Res. 2016 December: 32(4): 231-240.). Feces reduction rate (%)=(the control group−the chemotherapeutic agent group or the CDK inhibitor group)/the control group*100%
It is regarded as effective remission when the feces reduction rate of mice in the CDK inhibitor group is reduced compared with that in the chemotherapeutic agent group.
The feces amount of mice within 3 hours was observed and recorded every day. At the end of the experiment, the number of mice in the CDK inhibitor group whose feces reduction rate was lower than that of mice in the chemotherapeutic agent group was recorded. Table 10 lists various animal experiment combinations of chemotherapeutic agents and CDK inhibitors, as well as the corresponding experimental results.

[3] = continuous administration of fluorouracil and capecitabine for 7 days or above
[4] = continuous administration of fluorouracil for less than 7 days

Question: Which Relative remission rate ([1]; Example 457, Fluorouracil (5-Fu) oral administration 50 mg/kg once a day, for 14 days, CDK inhibitor oral 150 mg/kg once a day, for 14 days, 8 h before, cycle 14 days) does the source give for `CCN1CCN(Cc2ccc(Nc3ncc(F)c(-c4cc(F)c5nc(C)n(C(C)C)c5c4)n3)nc2)CC1` [Abemaciclib] here?
Answer: 0%

Question: How did the Relative remission rate ([1]; Examples 444-447 (one value printed; 4 h, 6 h, 8 h, 12 h before), Fluorouracil (5-Fu) intraperitoneal injection 70 mg/kg once a day, for 3 days, CDK inhibitor oral 150 mg/kg once a day, for 3 days, cycle 10 days) turn out when `CC(=O)c1c(C)c2cnc(Nc3ccc(N4CCNCC4)cn3)nc2n(C2CCCC2)c1=O` [Palbociclib] was run?
Answer: 70%

Question: What about the Relative remission rate ([1]; Examples 448-451 (one value printed; 4 h, 6 h, 8 h, 12 h before), Fluorouracil (5-Fu) intraperitoneal injection 70 mg/kg once a day, for 5 days, CDK inhibitor oral 150 mg/kg once a day, for 5 days, cycle 9 days) of the same compound?
Answer: 60%

Question: What about the Relative remission rate ([1]; Examples 462-465 (one value given; 2 h, 4 h, 6 h, 8 h before), Capecitabine oral administration 1000 mg/kg (printed 100/0 wrapped) once a day, for 7 days, CDK inhibitor oral 150 mg/kg once a day, for 7 days, cycle 14 days) of the same compound?
Answer: 0%

Question: And the Relative remission rate ([1]; Examples 466-469 (one value given; 2 h, 4 h, 6 h, 8 h before), Capecitabine oral administration 1000 mg/kg (printed 100/0 wrapped) once a day, for 14 days, CDK inhibitor oral 150 mg/kg once a day, for 14 days, cycle 14 days)?
Answer: 10%

Question: What about the Remission rate ([2]; Examples 470-473 (one value given; 2 h, 4 h, 6 h, 8 h before), for 3 days, CDK inhibitor oral 150 mg/kg once a day, for 3 days, cycle 10 days) of the same compound?
Answer: 40%

Question: And the Remission rate ([2]; Examples 474-477 (one value given; 2 h, 4 h, 6 h, 8 h before), for 5 days, CDK inhibitor oral 125 mg/kg once a day, for 5 days, cycle 9 days)?
Answer: 50%

Question: And the Remission rate ([2]; Examples 478-481 (one value given; 2 h, 4 h, 6 h, 8 h before), for 7 days, CDK inhibitor oral 125 mg/kg once a day, for 7 days, cycle 10 days)?
Answer: 10%

Question: `CN(C)C(=O)c1cc2cnc(Nc3ccc(N4CCNCC4)cn3)nc2n1C1CCCC1` [Ribociclib] was tested. Which Relative remission rate ([1]; Example 456, Fluorouracil (5-Fu) intravenous injection 70 mg/kg once a day, for 3 days, CDK inhibitor oral 200 mg/kg once a day, for 3 days, 4 h before, cycle 8 days) did it give?
Answer: 80%

Question: What about the “relieving effect on diarrhea” value [1, 3] of the same compound?
Answer: not significant

Question: And the “relieving effect on diarrhea” value [1, 4]?
Answer: significant relieving effects

Question: What does the source list for `CN1CCN(c2ccc(Nc3ncc4cc5n(c4n3)C3(CCCCC3)CNC5=O)nc2)CC1` [Trilaciclib (G1T28), Trilaciclib]?
Answer: Relative remission rate ([1]; Examples 452-455 (one value given; 2 h, 4 h, 6 h, 8 h before), Fluorouracil (5-Fu) intraperitoneal injection 70 mg/kg once a day, for 7 days, CDK inhibitor oral 125 mg/kg once a day, for 7 days, cycle 10 days): 10%; Relative remission rate ([1]; Examples 458-461 (one value given; 2 h, 4 h, 6 h, 8 h before), Capecitabine oral administration 1000 mg/kg (printed 100/0 wrapped) once a day, for 5 days, CDK inhibitor oral 100 mg/kg once a day, for 5 days, cycle 14 days): 50%; relieving effect on diarrhea [1, 3]: not significant; relieving effect on diarrhea [1, 4]: significant relieving effects
